Converted amounts (≈) assume the structure as drawn. Like-named read-outs stand apart in the source and are kept apart here.
Legend:
[1] = test system: M. tuberculosis clinical isolates; type: cell-based, Mycobacterium tuberculosis
M. tuberculosis H37Ra = test: MIC, in vitro bacterial growth assay; type: cell-based; conditions: Mycobacterium tuberculosis
[2] = test system: Gram-negative: Acinetobacter baumannii, Escherichia coli, Enterobacter cloacae, E. aerogenes, Klebsiella oxytoca, Pseudomonas aeruginosa, Salmonella enteridis …; test: Antimicrobial spectrum; type: cell-based; conditions: Gram-negative panel, clinical isolates from CHU d'Angers
[3] = test system: panel of cell lines derived from different body tissue; test: Cytotoxicity assay (resazurin), whole panel; conditions: 5 days co-incubation, 133 up to 100 μM
M. tuberculosis H37Rv [4] = test: MIC, in vitro bacterial growth assay; type: cell-based; conditions: Mycobacterium tuberculosis
Primary BMDM = test: Cytotoxicity assay (resazurin); conditions: 5 days
[5] = test system: Primary human macrophages; test: Cytotoxicity assay (resazurin); conditions: 5 days
BCG Pasteur-Tokyo = test: microbe, parasite or virus in culture; type: cell-based; conditions: Mycobacterium tuberculosis variant bovis BCG
in vitro = conditions: human
M. bovis BCG Pasteur = test: microbe, parasite or virus in culture; type: cell-based; conditions: Mycobacterium tuberculosis variant bovis BCG
M. smegmatis mc^2 155 = test: MIC, in vitro bacterial growth assay; type: cell-based, Mycobacterium smegmatis; conditions: for MIC: Mycolicibacterium smegmatis, MC^2155
[6] = test system: Fungi: Candida albicans, C. glabrata, C. parapsilosis; test: Antimicrobial spectrum; type: cell-based; conditions: Candida panel
[7] = test system: Gram-positive: Staphylococcus aureus, S. epidermis, S. capitis, S. xylosus, Micrococcus luteus, Listeria innocua, Lactobacillus gallinarum, group G …; test: Antimicrobial spectrum; type: cell-based; conditions: Gram-positive panel, clinical isolates from CHU d'Angers
SK-N-SH-Brain = test: Cytotoxicity assay (resazurin); type: cell-based; conditions: 5 days
Description: (§1) In order to address compound toxicity, seven cell lines originating from different body tissues were cultivated in the presence of 3-fold dilutions of compounds starting from 100 μM. After 5 days of culture, cell viability was assessed by the resazurin test. Briefly, cells were incubated with 10 μg/mL of resazurin (Sigma-Aldrich St. Louis, Mo.) for 4 h at 37° C. under 5% CO2. Resofurin fluorescence (RFU) was measured as indicated above. Percentage of toxicity on cells was calculated as follows: Cytotoxicity (%)=(RFUDMSO−RFUBlank)−(RFUcompound−RFUblank)/(RFUDMSO−RFUBlank)×100. Percentage of cytotoxicity was plotted against compound concentration and the minimal toxic concentration (MTC50) was determined by non-linear regression analysis as the lowest compound concentration where fifty percent toxicity was observed on the corresponding cell line.

HEK293-Kidney = test: Cytotoxicity assay (resazurin); type: cell-based; conditions: 5 days
Description: as §1

THP-1-Monocytes = test: Cytotoxicity assay (resazurin); type: cell-based; conditions: 5 days
Description: as §1

BJ-Skin = test: Cytotoxicity assay (resazurin); type: cell-based; conditions: 5 days
Description: as §1

HepG2-Hepatocytes = test: Cytotoxicity assay (resazurin); type: cell-based; conditions: 5 days
Description: as §1

Jurkat-T-cell = test: Cytotoxicity assay (resazurin); type: cell-based; conditions: 5 days
Description: as §1

MRC5-Lung = test: Cytotoxicity assay (resazurin); type: cell-based; conditions: 5 days
Description: as §1

C. jeikeium = test: Antimicrobial spectrum; type: cell-based, Corynebacterium; conditions: for MIC: Corynebacterium C. jeikeium
C. striatum = test: Antimicrobial spectrum; type: cell-based, Corynebacterium; conditions: for MIC: Corynebacterium C. striatum
M. tuberculosis H37Rv [8] = test: Conventional CFU determination in infected macrophages; type: cell-based, Mycobacterium tuberculosis
[9] = test system: M. tuberculosis Beijing 1237; test: MIC, in vitro bacterial growth assay; type: cell-based; conditions: Mycobacterium tuberculosis, BEIJING1237; laboratory strain Beijing 1237
Antimicrobial spectrum [10] = type: cell-based; conditions: Gram-negative panel
Antimicrobial spectrum [11] = type: cell-based; conditions: Gram-positive panel
M. bovis BCG Tokyo = test: microbe, parasite or virus in culture; type: cell-based; conditions: Mycobacterium tuberculosis variant bovis BCG
[12] = laboratory strain H37Ra, read-out: MIC
[13] = laboratory strain H37Rv, read-out: MIC
[14] = compounds 5 μM, Raw264.7, mouse bone marrow-derived macrophages, human primary macrophages, five days after infection

SMILES	Range of MICs for multiple strains ([1]; Drug Sensitive, Tissue) [µM]	Range of MICs for multiple strains ([1]; INH^R RIF^R Strep^R, Sputum) [µM]	Range of MICs for multiple strains ([1]; INH^R RIF^R Strep^R, Tissue) [µM]	Range of MICs for multiple strains ([1]; MDR, Sputum) [µM]	Range of MICs for multiple strains ([1]; MDR, Tissue) [µM]	Range of MICs for multiple strains ([1]; RIF^R, Sputum) [µM]	Range of MICs for multiple strains ([1]; RIF^R, Tissue) [µM]	Range of MICs for multiple strains ([1]; XDR, Sputum) [µM]	Range of MICs for multiple strains ([1]; XDR, Tissue) [µM]	cytotoxicity against the panel of cell lines [3]	MIC (M. bovis BCG Pasteur) [µM]	Range of MTC50 (SK-N-SH-Brain) [µM]	Range of MTC50 (HEK293-Kidney) [µM]	Range of MTC50 (BJ-Skin) [µM]	Range of MTC50 (HepG2-Hepatocytes) [µM]	Range of MTC50 (MRC5-Lung) [µM]	MIC [9] [µM]	MIC (M. tuberculosis H37Ra; [12]) [µM]	MIC (Antimicrobial spectrum [10]) [µM]	MIC (M. tuberculosis H37Rv [4]; [13]) [µM]	also measured
Cc1cccn2c(=O)c(C=O)c(Nc3cccc(Cl)c3)nc12 [compound 133, 2-(3-Chlorophenylamino)-9-methyl-4-oxo-4H-pyrido[1,2-a]pyrimidine-3-carbaldehyde]	2.5 to 5	0.3 to 1.2	1.2	0.3 to 1.2	1.2	2.5	1.2	0.6 to 2.5	0.3 to 5	no cytotoxicity	2 (≈ 0.627 µg/mL)	>100	>100	>100	>100	>100	–	–	–	–	MIC (M. tuberculosis H37Ra; H37RA): 2 µM (≈ 0.627 µg/mL); antimicrobial effect [2]: NE (NE: No effect up to 100 μg/mL equivalent to 320 μM); MIC (M. tuberculosis H37Rv [4]; H37RV): 2 µM (≈ 0.627 µg/mL); Range of MTC50 (Primary BMDM): >100 µM; Range of MTC50 [5]: >100 µM; MIC (BCG Pasteur-Tokyo): 2 µM (≈ 0.627 µg/mL); selectivity ratio (in vitro): > 50; MIC (M. smegmatis mc^2 155; mc^2 155, read-out: MIC): > 100 µM; MIC (μM) (M. smegmatis mc^2 155; mc^2 155): no effect; antimicrobial effect ([6]; clinical isolates from CHU d'Angers): NE (NE: No effect up to 100 μg/mL equivalent to 320 μM); antimicrobial effect [7]: NE (NE: No effect up to 100 μg/mL equivalent to 320 μM); Range of MTC50 (THP-1-Monocytes): >100 µM; Range of MTC50 (Jurkat-T-cell): >100 µM; antimicrobial effect (C. jeikeium; C. jeikeium, clinical isolates from CHU d'Angers): NE (NE: No effect up to 100 μg/mL equivalent to 320 μM); antimicrobial effect (C. striatum; C. striatum, clinical isolates from CHU d'Angers): NE (NE: No effect up to 100 μg/mL equivalent to 320 μM); decrease in the number of CFUs (M. tuberculosis H37Rv [8]; human and mouse cells, seven days after infection, 232 at 20 μM): ten-fold decrease
O=C(NCCOCc1ccccc1)c1cc([N+](=O)[O-])cc([N+](=O)[O-])c1 [compound 24, N-(2-(Benzyloxy)ethyl)-3,5-dinitrobenzamide]	0.31	0.08	0.04 to 0.08	0.04 to 0.08	0.04 to 0.08	0.08	0.08	0.04 to 0.08	0.08	no cytotoxicity	1.2 (≈ 0.414 µg/mL)	>100	>100	>100	>100	>100	0.1 (≈ 0.0345 µg/mL)	1.3 (≈ 0.449 µg/mL)	> 250	0.6 (≈ 0.207 µg/mL)	MIC (M. smegmatis mc^2 155): 0.6 µM (≈ 0.207 µg/mL); MIC [6]: > 250 µM; MIC (Antimicrobial spectrum [11]): > 250 µM; MIC (C. jeikeium): 2.7 µM (≈ 0.932 µg/mL); MIC (C. striatum): 27 µM (≈ 9.32 µg/mL); MIC (M. bovis BCG Tokyo): 0.6 µM (≈ 0.207 µg/mL); decrease in the number of CFUs (M. tuberculosis H37Rv [8]; [14]): ten-fold decrease
COc1ccc(OCCNC(=O)c2cc([N+](=O)[O-])cc([N+](=O)[O-])c2)cc1 [compound 4, N-(2-(4-Methoxyphenoxy)ethyl)-3,5-dinitrobenzamide]	0.38	0.1	0.05 to 0.1	0.05 to 0.1	0.05 to 0.1	0.05	0.02 to 0.05	0.02 to 0.05	0.05 to 0.1	no cytotoxicity	1.2 (≈ 0.434 µg/mL)	>100	>100	>100	>100	>100	0.3 (≈ 0.108 µg/mL)	1.2 (≈ 0.434 µg/mL)	> 250	0.6 (≈ 0.217 µg/mL)	MIC (M. smegmatis mc^2 155): 1.2 µM (≈ 0.434 µg/mL); MIC [6]: > 250 µM; MIC (Antimicrobial spectrum [11]): > 250 µM; MIC (C. jeikeium): 2.7 µM (≈ 0.976 µg/mL); MIC (C. striatum): 27 µM (≈ 9.76 µg/mL); MIC (M. bovis BCG Tokyo): 1.2 µM (≈ 0.434 µg/mL); decrease in the number of CFUs (M. tuberculosis H37Rv [8]; [14]): ten-fold decrease
